# Data taken from PMC4506568, “Targeting a Dynamic Protein–Protein Interaction: Fragment Screening against the Malaria Myosin A Motor Complex” (Chemmedchem, 2014).
# Target: T1, PfMTIPΔ60 (Plasmodium falciparum myosin A tail domain interacting protein, residues 61-204) (Plasmodium falciparum, UniProt Q8I4W8)
# T1 construct: gene MTIP; residues 61-204 (N- and C-terminal domains, disordered N-terminal extension removed), N-terminal His tag kept, recombinant as previously described; 15N-labelled for NMR; free of myoA tail
# T1 sequence (Q8I4W8 entry or part of it, stated change not applied): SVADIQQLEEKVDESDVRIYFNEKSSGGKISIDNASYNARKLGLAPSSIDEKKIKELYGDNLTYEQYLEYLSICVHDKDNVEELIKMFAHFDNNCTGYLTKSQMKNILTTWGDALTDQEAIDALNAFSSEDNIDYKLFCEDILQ
# Experiment: 1H, […]-HSQC NMR titration
# Assay type: binding
compound,measurement,value
"CN(C)Cc1ccc(CSCCN)o1 [compound 8, fragment 8]",Kd,22.5 ± 2.7 mM
